Data taken from patent US20230000808A1, “COMPOSITIONS AND METHODS EXCLUDING OR WITH REDUCED GLUTAMINE FOR THE TREATMENT OF HEMOGLOBINOPATHIES AND THALASSEMIAS” (AXCELLA HEALTH INC., priority 2019, published 2023).

Key:
[1] = system: TNFα; assay: LPS-induced TNF-α secretion in primary human monocyte-derived macrophages (ELISA); assay type: cell-based; details: for TNF-α Measurements Mean: baseline subtracted; for effect on LPS-induced TNF-α secretion: Two Way ANOVA Dunnett
Description: Primary human PMBC derived macrophages were seeded on day 0 at 3.0×10^4 cells per well in 96-well microplates (ThermoFisher) in Dulbecco's Modified Eagle Medium (DMEM) (Gibco) supplemented with penicillin-streptomycin (Hyclone) and 10% heat inactivated fetal bovine serum (HI-FBS) (Atlanta Bio) and incubated overnight at 37° C., 5% CO2. On day 1, cells were washed once with 150 μl per well DPBS (Gibco) and treated with 75 μl of: • a. […] The same medium described above with one amino acid at various concentrations including complete dropout. […] On day 3, the supernatant was collected and immediately frozen in −80° C. freezer. Cells were washed once with 150 μl DPBS and viability was assessed using the WST-8 Cell Proliferation Cytotoxicity Assay (Dojindo). […] Protein levels in supernatant samples were analyzed by ELISA for IL-6 and TNFα using commercially available kits (R&D Systems) according to manufacturer-supplied protocols.

[2] = system: VCAM-1; assay: VCAM-1 cell integrated intensity in HLMVEC treated with TNF-α (immunofluorescence); assay type: cell-based, human; details: for VCAM-1 expression in HLMVEC: 0.5 ng/mL TNF-α, amino acids at 20× HMDB, 24 hours
In short: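 Primary human lung microvascular endothelial cells, 24 h in medium with SCD-like amino acid profile plus 0.5 ng/mL TNF-α, with or without amino acids at 20× mean plasma level. Fixed, immunostained for ICAM-1 and VCAM-1; integrated intensity per cell by high-content imaging.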

## NC(=O)CC[C@H](N)C(=O)O [Glutamine, L-glutamine]
[1]; Donor 1, Conc. 749 μM (baseline), LPS
  TNF-α Measurements Mean: 0
[1]; Donor 1, Conc. 3747 μM, LPS
  TNF-α Measurements Mean: −45.7
[1]; Donor 1, Conc. 11242 μM, LPS
  TNF-α Measurements Mean: −65.24
[1]; Donor 1, Conc. 22484 μM, LPS
  TNF-α Measurements Mean: −103.07
[1]; Donor 2, Conc. 749 μM (baseline), LPS
  TNF-α Measurements Mean: −9.5E−15
[1]; Donor 2, Conc. 3747 μM, LPS
  TNF-α Measurements Mean: 9.338
[1]; Donor 2, Conc. 11242 μM, LPS
  TNF-α Measurements Mean: 20.04
[1]; Donor 2, Conc. 22484 μM, LPS
  TNF-α Measurements Mean: 11.5
[1]; Donor 2
  effect on LPS-induced TNF-α secretion: increased
[1]; Donor 3, Conc. 749 μM (baseline), LPS
  TNF-α Measurements Mean: 0
[1]; Donor 3, Conc. 3747 μM, LPS
  TNF-α Measurements Mean: 1.936
[1]; Donor 3, Conc. 11242 μM, LPS
  TNF-α Measurements Mean: 18
[1]; Donor 3, Conc. 22484 μM, LPS
  TNF-α Measurements Mean: 29.14
[1]; Donor 3
  effect on LPS-induced TNF-α secretion: increased
[2]
  VCAM-1 expression in HLMVEC: increased

## CC(=O)N[C@@H](CS)C(=O)O [N-Acetyl Cysteine, N-acetylcysteine]
[1]; Donor 1, Conc. 5 X, LPS 0.15 ng/mL
  TNF-α Measurements Mean: −326.24
[1]; Donor 1, Conc. 10 X, LPS 0.15 ng/mL
  TNF-α Measurements Mean: −446.88
[1]; Donor 1, Conc. 20 X, LPS 0.15 ng/mL
  TNF-α Measurements Mean: −561.33
[1]; Donor 1, Conc. 40 X, LPS 0.15 ng/mL
  TNF-α Measurements Mean: −644.49
[1]; Donor 1
  effect on LPS-induced TNF-α secretion: significantly reduced
[1]; Donor 2, Conc. 5 X, LPS 0.15 ng/mL
  TNF-α Measurements Mean: −54.1596
[1]; Donor 2, Conc. 10 X, LPS 0.15 ng/mL
  TNF-α Measurements Mean: −70.8382
[1]; Donor 2, Conc. 20 X, LPS 0.15 ng/mL
  TNF-α Measurements Mean: −88.6528
[1]; Donor 2, Conc. 40 X, LPS 0.15 ng/mL
  TNF-α Measurements Mean: −103.984
[1]; Donor 2
  effect on LPS-induced TNF-α secretion: significantly reduced
[1]; Donor 3, Conc. 5 X, LPS 0.15 ng/mL
  TNF-α Measurements Mean: −33.6246
[1]; Donor 3, Conc. 10 X, LPS 0.15 ng/mL
  TNF-α Measurements Mean: −41.7266
[1]; Donor 3, Conc. 20 X, LPS 0.15 ng/mL
  TNF-α Measurements Mean: −48.4373
[1]; Donor 3, Conc. 40 X, LPS 0.15 ng/mL
  TNF-α Measurements Mean: −55.3093
[1]; Donor 3
  effect on LPS-induced TNF-α secretion: significantly reduced
[2]
  VCAM-1 expression in HLMVEC: greatly reduced
[2]; HLMVEC + 0.5 ng/mL TNF-α, 24 h, amino acids 20x HMDB, Nac/Cit/Car 5 mM as bracketed
  VCAM-1 Cell Integrated Intensity Median: −0.315
